One series relates to MDA-MB-468. Put plainly: Cytotoxicity against human MDA-MB-468 cells harboring wild type BRCA1 and BRCA2 mutant reduction in assessed as cell viability. Format: functional, cell-based.
Series [1] has as its system MDA-MB-231. Put plainly: Antitumor activity against human MDA-MB-231 cells xenografted in BALB/c-nu/nu mouse assessed as reduction in tumor growth at 2.5 mg/kg, ip measured for 31 days. Format: functional, organism-based. Conditions: time 31.0 day.
The nature of series [2]: Elimination half life in Sprague-Dawley rat at 2 mg/kg, iv measured up to 24 hrs by LC-MS/MS analysis. Format: ADME, organism-based. Conditions: in vivo, read-out: beta t1/2 (converted).
In series [3] the target is T1, Protein deacetylase HDAC6 (Homo sapiens, UniProt Q9UBN7).
T1 sequence (Q9UBN7 whole entry): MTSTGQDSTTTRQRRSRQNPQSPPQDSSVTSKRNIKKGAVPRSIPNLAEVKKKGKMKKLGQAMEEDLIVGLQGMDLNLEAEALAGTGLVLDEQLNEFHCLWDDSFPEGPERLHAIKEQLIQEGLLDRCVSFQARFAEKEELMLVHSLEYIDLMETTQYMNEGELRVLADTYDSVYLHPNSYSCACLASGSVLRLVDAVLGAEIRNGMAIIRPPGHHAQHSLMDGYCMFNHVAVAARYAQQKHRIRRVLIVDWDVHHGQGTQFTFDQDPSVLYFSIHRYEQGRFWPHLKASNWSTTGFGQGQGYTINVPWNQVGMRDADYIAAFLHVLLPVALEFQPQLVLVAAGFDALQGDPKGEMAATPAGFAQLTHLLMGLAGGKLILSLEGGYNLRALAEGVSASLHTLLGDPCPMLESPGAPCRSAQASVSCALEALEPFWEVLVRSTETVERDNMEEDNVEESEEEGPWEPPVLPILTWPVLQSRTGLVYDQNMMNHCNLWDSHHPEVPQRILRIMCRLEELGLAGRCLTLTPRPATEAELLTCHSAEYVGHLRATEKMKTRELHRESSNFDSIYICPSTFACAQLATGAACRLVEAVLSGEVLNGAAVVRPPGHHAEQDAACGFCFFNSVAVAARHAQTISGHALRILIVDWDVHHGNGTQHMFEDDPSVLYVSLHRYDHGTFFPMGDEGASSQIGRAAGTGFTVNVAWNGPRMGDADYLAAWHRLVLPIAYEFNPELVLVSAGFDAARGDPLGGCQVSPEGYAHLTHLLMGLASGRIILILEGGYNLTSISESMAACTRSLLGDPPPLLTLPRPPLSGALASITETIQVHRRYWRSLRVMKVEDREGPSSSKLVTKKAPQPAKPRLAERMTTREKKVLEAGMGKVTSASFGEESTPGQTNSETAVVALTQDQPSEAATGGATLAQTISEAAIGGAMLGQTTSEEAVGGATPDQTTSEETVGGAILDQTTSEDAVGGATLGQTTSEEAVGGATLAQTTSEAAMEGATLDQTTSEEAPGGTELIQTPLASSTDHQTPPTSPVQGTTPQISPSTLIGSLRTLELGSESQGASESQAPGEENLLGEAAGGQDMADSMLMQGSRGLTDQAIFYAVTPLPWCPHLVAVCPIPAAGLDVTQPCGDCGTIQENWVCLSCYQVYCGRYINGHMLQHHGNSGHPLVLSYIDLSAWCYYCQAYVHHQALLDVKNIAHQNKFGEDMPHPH
The experiment in a line: Inhibition of full length recombinant N-terminal GST-tagged human HDAC6 expressed in baculovirus infected Sf9 insect cells incubated for 50 mins by Glo- luminescence assay.

The subject of series [4] is MDA-MB-231. The experiment in a line: Cytotoxicity against human MDA-MB-231 cells harboring wild type BRCA1 and wild BRCA2 assessed as reduction in cell viability. The class given is functional, cell-based.
Series [5] addresses T2, Histone deacetylase (Homo sapiens) (UniProt Q13547+O15379+Q9UBN7+Q92769+Q9UQL6+Q8WUI4+Q9BY41+Q96DB2+P56524+Q9UKV0+Q969S8). The experiment in a line: Inhibition of HDAC in human SUM159PT cells assessed as increase in acetylated alpha-tubulin level at 1.25 to 5 uM by Western blot analysis. The class given is cell-based. Conditions: dose 1.25-5 µM. On the technique in general: In western blotting, separated proteins are transferred to a membrane and probed.

For series [6], the system named is MDA-MB-231. Put plainly: Antitumor activity against human MDA-MB-231 cells xenografted in BALB/c-nu/nu mouse assessed as increment ratio at 2.5 mg/kg, ip measured for 31 days. The class given is functional. Conditions: time 31 day. (Xenograft models place foreign cells or tissue in a host animal.)
The target in series [7] is Quadruplex DNA. Put plainly: Binding affinity to 5' FAM-labeled c-myc G4-quadruplex DNA Pu22 (unknown origin) by fluorescence quench assay. Format: nucleic-acid assay.
Series [8] is described as follows: Stabilization of DNA Pu22 (unknown origin ) single strand assessed as G4-quadruplex formation in absence of potassium ions by spectrum based circular dichroism analysis. The note with it: dose <= 30.0 µM; DDE = dose-dependent effect. On the technique in general: Circular dichroism is widely used to follow secondary structure.
The nature of series [9]: Stabilization of DNA Pu22 (unknown origin ) single strand assessed as G4-quadruplex formation up to 30 uM in presence of potassium ions by spectrum based circular dichroism analysis.
The target of series [10] is T2, Histone deacetylase (Homo sapiens). The experiment in a line: Inhibition of HDAC in human BT-549 cells assessed as increase in acetylated alpha-tubulin level at 1.25 to 5 uM by Western blot analysis. The class given is cell-based. Conditions: dose 1.25-5 µM.
The target in series [11] is Quadruplex DNA. The experiment in a line: Binding affinity to 5' FAM-labeled c-myc G4-quadruplex DNA HTG21 (unknown origin) assessed as dissociation constant by surface plasmon resonance assay. The class given is nucleic-acid assay.
In the next series the target is Histone deacetylase 4 (Homo sapiens, UniProt P56524). The experiment in a line: Inhibition of full length recombinant N-terminal GST-tagged human HDAC4 (612 to end residues)expressed in baculovirus infected Sf9 insect cells incubated for 50 mins by Glo- luminescence assay.
Sequence of Histone deacetylase 4 (P56524 whole entry): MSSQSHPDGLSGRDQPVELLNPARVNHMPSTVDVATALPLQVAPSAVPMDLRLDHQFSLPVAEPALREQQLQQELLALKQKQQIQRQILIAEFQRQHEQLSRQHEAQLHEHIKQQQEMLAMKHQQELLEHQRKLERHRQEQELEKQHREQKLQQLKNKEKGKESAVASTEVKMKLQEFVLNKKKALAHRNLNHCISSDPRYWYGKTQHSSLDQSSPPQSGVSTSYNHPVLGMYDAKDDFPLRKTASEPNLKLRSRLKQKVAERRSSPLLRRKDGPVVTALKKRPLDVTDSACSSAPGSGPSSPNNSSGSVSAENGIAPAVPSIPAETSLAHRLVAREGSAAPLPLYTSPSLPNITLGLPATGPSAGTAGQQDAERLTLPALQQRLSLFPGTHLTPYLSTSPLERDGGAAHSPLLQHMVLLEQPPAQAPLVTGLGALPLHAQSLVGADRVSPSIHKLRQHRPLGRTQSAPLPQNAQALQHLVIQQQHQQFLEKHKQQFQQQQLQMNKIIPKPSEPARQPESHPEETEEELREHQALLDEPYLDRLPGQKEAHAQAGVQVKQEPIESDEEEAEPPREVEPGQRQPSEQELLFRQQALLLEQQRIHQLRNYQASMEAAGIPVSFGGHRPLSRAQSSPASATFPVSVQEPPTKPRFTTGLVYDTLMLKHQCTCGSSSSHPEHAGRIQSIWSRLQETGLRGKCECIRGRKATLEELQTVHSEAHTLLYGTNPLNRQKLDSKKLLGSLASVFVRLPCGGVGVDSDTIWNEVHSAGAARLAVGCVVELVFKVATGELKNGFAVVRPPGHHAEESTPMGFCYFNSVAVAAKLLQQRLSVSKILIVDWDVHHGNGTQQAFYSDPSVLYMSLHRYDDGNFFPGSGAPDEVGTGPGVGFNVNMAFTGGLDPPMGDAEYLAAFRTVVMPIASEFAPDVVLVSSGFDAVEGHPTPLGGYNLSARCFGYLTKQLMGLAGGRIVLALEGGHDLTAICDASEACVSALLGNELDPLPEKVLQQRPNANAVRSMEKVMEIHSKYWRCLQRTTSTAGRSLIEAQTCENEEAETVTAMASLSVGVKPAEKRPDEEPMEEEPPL
Series [12] deals with Quadruplex DNA. Put plainly: Binding affinity to 5' FAM and 3' TAMRA-labeled c-myc G4-quadruplex DNA HTG21 (unknown origin) assessed as change in melting temperature by fluorescence resonance energy transfer assay. Format: nucleic-acid assay.
Series [13] has as its target Quadruplex DNA. The experiment in a line: Binding affinity to 5' FAM-labeled […] (unknown origin) assessed as dissociation constant by surface plasmon resonance assay. Format: nucleic-acid assay.
In series [14] the test system is MDA-MB-231. The experiment in a line: Antitumor activity against human MDA-MB-231 cells xenografted in BALB/c-nu/nu mouse assessed as tumor growth inhibition at 2.5 mg/kg, ip measured for 31 days. The class given is functional. Conditions: MDA-MB-231, 744 h, time 31 day, read-out: TGI.
Series [15] relates to Quadruplex DNA. Conditions: dose 1.0 µM.
Description: Binding affinity to 5' FAM and 3' TAMRA-labeled c-myc G4-quadruplex DNA Pu22 (unknown origin) assessed as change in melting temperature at 1 uM by fluorescence resonance energy transfer assay
Series [16] concerns Quadruplex DNA. The experiment in a line: Binding affinity to 5' FAM and 3' TAMRA-labeled […] (unknown origin) assessed as change in melting temperature by fluorescence resonance energy transfer assay. The class given is nucleic-acid assay.
The test system of series [17] is MDA-MB-231. Put plainly: Effect on metabolism in human MDA-MB-231 cells assessed as reduction in glycolysis at 2.5 uM measured after 48 hrs by seahorse XF24 analysis. The class given is functional, cell-based.
Series [18] has as its system Quadruplex DNA. The experiment in a line: Binding affinity to 5' FAM and 3' TAMRA-labeled c-myc G4-quadruplex DNA duplex (unknown origin) assessed as change in melting temperature by fluorescence resonance energy transfer assay. The class given is nucleic-acid assay.
Series [19] relates to MDA-MB-231. Put plainly: Antitumor activity against human MDA-MB-231 cells xenografted in BALB/c-nu/nu mouse assessed as reduction in tumor volume at 2.5 mg/kg, ip measured for 31 days. Format: functional, organism-based. The note with it: time 31.0 day.
Another series has as its system BT-549. The experiment in a line: Inhibition of colony formation in human BT-549 cells measured for 7 days by crystal violet staining based assay. Format: functional, cell-based. Conditions: dose 2.5 µM, time 7.0 day, DDE = dose-dependent effect.

Calls of active or inactive are those of the source. The calls are words filed in the database; no cut-off is given here.

As usually defined, the IC50 is the point on the concentration scale where inhibition reaches its midpoint. Usually T/C stands for the ratio of treated to control. One may read the Kd as the equilibrium constant for the complex coming apart. What is called ΔTm is the change in melting temperature against a reference sample.

As for `CN(C)CCCNC(=O)c1ccc(/C=C2\CCn3c2nc2cc(N4CCN(CCCCCCCC(=O)NO)CC4)c(F)cc2c3=O)cc1.Cl`, the IC50 worked out at 3.3 µM in the series on MDA-MB-468, 0.65 µM in [3], 4.1 µM in the series on MDA-MB-231 [4] and 2.64 µM on Histone deacetylase 4. Moreover, the outcome (with MDA-MB-231 [1]; in [9]; in the series with MDA-MB-231 [17]; in the series with MDA-MB-231 [19]) was Active. In [2], the half-life is 7.4 h. In addition, the inhibition result in [5] and in [10] was “Active” each time. Moreover, the T/C in the series with MDA-MB-231 [6] is listed as 36.2%. The DC50 at Quadruplex DNA [7] was 0.4 µM. Besides, the Activity entry in series [8] is “Dde”. Besides, the Kd was more than 10 µM at Quadruplex DNA [11] and 4.5 µM on Quadruplex DNA [13]. The shift in melting temperature (ΔTm) came out at 2 °C with Quadruplex DNA [12], 16.7 °C in the series with Quadruplex DNA [15], 1.2 °C in the series on Quadruplex DNA [16] and 0.1 °C in the series on Quadruplex DNA [18]. Also, in the series on MDA-MB-231 [14], the inhibition in vivo at 2.5 mg/kg worked out at 69%. In addition, the inhibition entry in the series on BT-549 is “Dde”.

The values above are taken from ChEMBL document CHEMBL5113518, “Discovery of a Novel G-Quadruplex and Histone Deacetylase (HDAC) Dual-Targeting Agent for the Treatment of Triple-Negative Breast Cancer” (J Med Chem, 2022).
